Read-outs that look alike come from different tables or passages of the source.
Tests used:
[1] = test system: 7-methoxyresorufin O-dealkylase activity; test: Induction of 7-methoxyresorufin O-demethylase activity in tuber slices; format: cell-based, Helianthus tuberosus; conditions: 48 hours of treatment
Method: Slices of dormant tuber of Helianthus tuberosus were placed under survival conditions in oxygenated distilled water and stirred with a current of compressed air in the presence of various metals or organic compounds (effectors).
A control was performed with DMSO alone.

[2] = target: T1, CYP76B1 (Helianthus tuberosus, UniProt O23976); test: CYP76B1-dependent metabolism (O-/N-dealkylation) in microsomes of transformed yeast; conditions: for Activity: + NADPH; for turnover of the dealkylation: for phenylureas first dealkylation; for conversion / dealkylation by CYP76B1: transformed yeast microsomes, NADPH; for metabolite detection for endogenous molecules: transformed WAT11 yeast microsomes
T1 sequence (O23976 1-490): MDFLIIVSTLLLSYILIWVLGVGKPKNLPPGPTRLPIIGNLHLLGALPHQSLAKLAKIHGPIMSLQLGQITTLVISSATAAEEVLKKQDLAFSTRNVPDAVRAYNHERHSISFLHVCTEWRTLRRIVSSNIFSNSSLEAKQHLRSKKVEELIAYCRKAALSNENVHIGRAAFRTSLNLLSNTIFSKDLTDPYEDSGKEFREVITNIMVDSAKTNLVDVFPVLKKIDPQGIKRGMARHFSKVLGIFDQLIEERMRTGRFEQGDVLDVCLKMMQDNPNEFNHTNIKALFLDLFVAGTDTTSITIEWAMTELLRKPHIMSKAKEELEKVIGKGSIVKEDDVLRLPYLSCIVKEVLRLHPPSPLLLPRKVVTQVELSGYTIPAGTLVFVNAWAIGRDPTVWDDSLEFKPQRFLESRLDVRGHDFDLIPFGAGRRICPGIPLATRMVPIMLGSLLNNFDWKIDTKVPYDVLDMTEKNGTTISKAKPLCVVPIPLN
Method: BamHI and EcoRI sites were introduced by PCR just upstream of the ATG and downstream of the stop codon of the CYP76B1 coding sequence, using the primers 5′-[…] (sense) 5′-[…] (reverse) (SEQ ID NO 3 and SEQ ID NO 4 respectively). The PCR mixture was preheated for 2 min at 92° C. before addition of 1 unit of Pfu DNA polymerase (Stratagene). After 3 min additional heating at 92° C., 30 cycles of amplification were carried out as follows 1 min denaturation at 92° C., 1 min annealing at 52° C., 2 min extension at 72° C. The reaction was completed by 10 min extension at 72° C. After BamHI/EcoRI digestion, the 1470 bp coding sequence was inserted into the vector pYeDP60 (32). Transformation of Saccharomyces cerevisiae W(R), WAT11 and WAT21, and yeast growth were conducted according to Pompon et al. (32). Yeast microsomes were prepared as described in Pierrel et al. (33) with addition of 1% SAB, 2 mM β-mercaptoethanol, 10 mM sodium disulfite and 1 mM PMSF to the extraction buffer. When indicated, 0.5 mM δ-aminolevulinic acid methyl ester (Sigma) was added to the induction medium, or cells were stored at 4° C. for 24 h before preparation of the microsomes.
(§1) Spectrophotometric measurements of P450 content and substrate binding were performed as in (Gabriac et al., 1991) and SDS-PAGE was performed as in Gabriac et al. (34). Gels were stained with Coomassie Blue R-250. Alkoxycoumarins and alkoxyresorufins O-dealkylation was measured by fluorometry (Werck-Reichhart et al., 1990). The data are means ± S.D. of triplicates.
The conversion of other molecules was assayed by TLC or HPLC analysis of polar metabolites formed from radiolabeled compounds (Cabello-Hurtado et al., 1998a, b). NADPH-cytochrome c reductase was assayed according to (Benveniste et al., 1986). Kinetic data were fitted using the nonlinear regression program […] (Duggleby, 1984).
10 μL of non-immune serum or of serum raised against purified ECOD fraction were preincubated 2 min at room temperature with 10 μL of microsomes before addition of the reaction mix. n.d.: not detectable.
Conversion was estimated from the sum of the two polar metabolites detected after TLC analysis. Data are means + S.D. of two to four determinations. n.d.: not detected.
CYP76B1 concentrations in the MCOD, ECOD, MROD and EROD fluorometric assays were 1.5 nM or 2.1 nM, depending on the coexpressed ATR1 or yeast reductases. In the CTUDM assays, CYP76B1 concentrations were 1.7 nM (ATR1) and 8 nM (yeast), respectively. It was 12 nM for the determination of the catalytic parameters of monodemethyl-CTUDM, and 1.7 nM (ATR1) or 20 nM (yeast) in the IPUDM assays. Products were quantified by direct TLC analysis of 100 μL of the acidified incubation medium after 6 min incubation at 30° C. for the CTUDM and IPUDM assays, and after 9 min incubation for the monodemethyl-CTUDM.

[3] = target: T1, CYP76B1; test: biochemical; conditions: for ΔAmax × 10^−3: at saturating ligand concentration
Method: as §1
The binding of substrates into the catalytic site of a P450 usually induces a shift of its maximum of absorbance, redox potential and iron spin state (Raag and Poulos, 1989) resulting from the displacement of the water sixth ligand of the heme iron. It is easily detected by differential spectrophotometry as a so-called type I spectrum with a peak at 390 nm and a trough at 420 nm (Jefcoate, 1978). The variation of the differential absorbance ΔA390-420 versus substrate concentration allows the calculation of an apparent dissociation constant (Ks). A high ΔAmax induced by the ligand is usually an indication of correct positioning for catalysis.
CYP76B1 was 60 nM in the assays. Difference spectra were recorded after the addition of increasing concentrations of ligands to the sample cuvette. An equal volume of the herbicide solvent (DMSO) was added to the reference. Ks and ΔAmax at saturating ligand concentration were calculated from the double-reciprocal plots of ΔA(390-420 nm) versus substrate concentrations.

[4] = coexpressed reductase ATR1 (WAT11)
[5] = coexpressed yeast reductase (W(R))
[6] = read-out: KS (apparent dissociation constant), CYP76B1 60 nM, ΔA(390-420 nm) double-reciprocal plots

With `Cc1ccc2cc3c(ccc4ccccc43)c3c2c1CC3` [3-methylcholanthrene] the “induction of 7-methoxyresorufin O-dealkylase activity” value (shortened to “induction”) [1] was “very strongly induced”.
With `CCOc1ccc2nc3ccc(=O)cc-3oc2c1` [7-ethoxyresorufin] the Activity ([2]; W(R) strain) was 5.1 pkat mg-1 protein, the “turnover of the dealkylation” value ([2]; W(R) strain) was 6 min⁻¹ and the Activity ([2]; WAT11 strain) was 11.6 pkat mg-1 protein. For the same compound, the “turnover of the dealkylation” value ([2]; WAT11 strain) was 22 min⁻¹, the Kcat [2, 4] was 0.467 s⁻¹ and the Km [2, 4] was 0.17 µM.
With `COc1ccc2ccc(=O)oc2c1` [7-methoxycoumarin, 7-Methoxycoumarin] the Activity ([2]; W(R) strain) was 10.9 pkat mg-1 protein, the “turnover of the dealkylation” value ([2]; W(R) strain) was 13 min⁻¹ and the Activity ([2]; WAT11 strain) was 16.4 pkat mg-1 protein. The “turnover of the dealkylation” value ([2]; WAT11 strain) was 31 min⁻¹.
`COc1ccc2nc3ccc(=O)cc-3oc2c1` [7-methoxyresorufin] was tested, and the Activity ([2]; W(R) strain) was 12.6 pkat mg-1 protein, the “turnover of the dealkylation” value ([2]; W(R) strain) was 15 min⁻¹ and the Activity ([2]; WAT11 strain) was 18.6 pkat mg-1 protein. For the same compound, the “turnover of the dealkylation” value ([2]; WAT11 strain) was 41 min⁻¹, the Kcat [2, 4] was 0.683 s⁻¹ and the Km [2, 4] was 0.17 µM. It also gave a Kcat ([2]; coexpressed reductase ATR2) of 0.717 s⁻¹, a Km ([2]; coexpressed reductase ATR2) of 0.185 µM and a Kcat [2, 5] of 0.25 s⁻¹. For the same compound, the Km [2, 5] was 0.23 µM.
`COc1c2occc2cc2ccc(=O)oc12` [8-methoxypsoralen] was tested, and the “induction” value [1] was “very strongly induced”.
In the case of `CON(C)C(=O)Nc1ccc(Br)c(Cl)c1` [Chlorbromuron], the Kd [3] is reported as 5.3 µM, the “ΔAmax × 10^−3” value ([3]; CYP76B1 60 nM) is reported as 6.7 × 10^−3 and the “conversion / dealkylation by CYP76B1” value [2] is reported as “dealkylates”.
With `CC(C)c1ccc(NC(=O)N(C)C)cc1` [Isoproturon, N-(4-isopropylphenyl)-N′,N′-dimethylurea] the Kd [3] was 55 µM, the “ΔAmax × 10^−3” value ([3]; CYP76B1 60 nM) was 8.2 × 10^−3 and the Activity ([2]; W(R) strain) was 128 pkat mg-1 protein. The “turnover of the dealkylation” value ([2]; W(R) strain) was 40 min⁻¹, the Activity ([2]; WAT11 strain) was 475 pkat mg-1 protein and the “turnover of the dealkylation” value ([2]; WAT11 strain) was 147 min⁻¹. The Kcat [2, 4] was 2.45 s⁻¹ and the Kcat [2, 5] was 0.667 s⁻¹.
`CON(C)C(=O)Nc1ccc(Br)cc1` [Metobromuron] was tested, and the Kd [3, 6] was 6.2 µM.
`CON(C)C(=O)Nc1ccc(Cl)cc1` [Monolinuron] was tested, and the Kd [3] was 4.8 µM and the “conversion / dealkylation by CYP76B1” value [2] was “dealkylates”.
`CC1=CC(=O)CC(C)(C)C1(O)/C=C/C(C)=C\C(=O)O` (stereo not shown) [abcisic acid] was tested, and the “metabolite detection for endogenous molecules” value (shortened to “metabolite detection”) [2] was “No metabolite”.
In the case of `c1ccc2c(c1)cc1ccc3cccc4ccc2c1c34` [benzo(a)pyrene], the “induction” value [1] is reported as “very strongly induced”.
In the case of `O=C(O)c1ccccc1` [benzoate, Benzoic acid], the “metabolite detection” value [2] is reported as “No metabolite”.
For `CCCCCCCCCC(=O)O` [capric, capric acid], the “metabolite detection” value [2] was “No metabolite”.
With `O=C(O)/C=C/c1ccccc1` [cinnamate, trans-Cinnamic acid] the “metabolite detection” value [2] was “No metabolite”.
`CCCCC(CC)COC(=O)c1ccccc1C(=O)OCC(CC)CCCC` (stereo not shown) [diethylhexylphthalate] was tested, and the “induction” value [1] was “very strongly induced”.
In the case of `COc1cc(/C=C/C(=O)O)ccc1O` [ferulate, ferulic acid], the “metabolite detection” value [2] is reported as “No metabolite”.
With `COc1cc2oc(=O)ccc2cc1O` [isoscopoletin] the “metabolite detection” value [2] was “No metabolite”.
With `CCCCCCCCCCCC(=O)O` [lauric, lauric acid] the “metabolite detection” value [2] was “No metabolite”.
For `Cl[C@H]1[C@H](Cl)[C@@H](Cl)[C@@H](Cl)[C@H](Cl)[C@H]1Cl` [lindane], the “induction” value [1] was “very strongly induced”.
For `CCCCC/C=C\C/C=C\CCCCCCCC(=O)O` [linoleic, linoleic acid], the “metabolite detection” value [2] was “No metabolite”.
In the case of `CC/C=C\C/C=C\C/C=C\CCCCCCCC(=O)O` [linolenic, linolenic acid], the “metabolite detection” value [2] is reported as “No metabolite”.
For `CNC(=O)Nc1ccc(C)c(Cl)c1` [monodemethyl-chlortoluron], the Kcat [2, 4] was 0.767 s⁻¹, the Km [2, 4] was 81 µM and the “conversion / dealkylation by CYP76B1” value [2] was “actively dealkylated”.
In the case of `CCCCCCCCCCCCCC(=O)O` [myristic, myristic acid], the “metabolite detection” value [2] is reported as “No metabolite”.
For `O=C1OC(=O)c2cccc3cccc1c23` [naphthalic anhydride, 1,8-Naphthalic anhydride], the “induction” value [1] was “very strongly induced”.
For `O=C1C[C@@H](c2ccc(O)cc2)Oc2cc(O)cc(O)c21` [naringenin], the “metabolite detection” value [2] was “No metabolite”.
With `C=C(CC[C@@H](C)[C@H]1CC[C@@]2(C)C3=C(CC[C@]12C)[C@@]1(C)CC[C@H](O)[C@@H](C)[C@@H]1CC3)C(C)C` [obtusifoliol] the “metabolite detection” value [2] was “No metabolite”.
`CCCCCCCC/C=C\CCCCCCCC(=O)O` [oleic, oleic acid] was tested, and the “metabolite detection” value [2] was “No metabolite”.
In the case of `CCCCCCCCCCCCCCCC(=O)O` [palmitic, palmitic acid], the “metabolite detection” value [2] is reported as “No metabolite”.
In the case of `COc1cc2ccc(=O)oc2cc1O` [scopoletin], the “metabolite detection” value [2] is reported as “No metabolite”.
Metoxuron was tested, and the “ΔAmax × 10^−3” value ([3]; CYP76B1 60 nM) was 6.1 × 10^−3 and the Kd [3, 6] was 117 µM.
For mercury, the “induction” value [1] was “very strongly induced”.
